Test [1] deals with T1, FL-SMARCA2 (full-length human SMARCA2 isoform 1) (Homo sapiens, UniProt P51531).
T1 construct: FLAG tag (YKDDDDK) (C); made in house; host or cells: Sf21 insect cells (baculovirus, pFastBacI)
Nature of the test: SMARCA2 ATPase activity assay (ADP-Glo, chicken mononucleosome substrate). The test is classed as biochemical. The settings on record: ATP 250 uM. From the text: Molecular Biology: Full-length human SMARCA2 isoform 1 (P51531) transcript clone was amplified from a cDNA library incorporating an N-terminal HIS tag ([…]) fused directly to Ser2 of SMARCA2 and a C-FLAG tag (YKDDDDK) fused directly to Glu1590 of SMARCA2. The amplified gene was subcloned into pFastBacI (Life Technologies).
Protein Expression: Recombinant baculovirus were generated and protein over-expression was accomplished by infecting exponentially growing Sf21 insect cell culture at 1.24×10^6 cell/ml with an MOI of 0.1. Infections were carried out for 76 hours, harvested by centrifugation, and stored at −80° C. for purification.
Expressed full-length SMARCA2 was purified from cell paste by FLAG affinity chromatography followed by anion exchange chromatography. The protein was dialyzed into a storage buffer containing 25 mM HEPES, 300 mM KCl, 10% Glycerol, pH 7.9, 1 mM TCEP and 0.01% Tween-20. The purity of the protein was measured as 74% using micro-capillary based gel electrophoresis.

Test [2] deals with FL-SMARCA4 (Homo sapiens, UniProt P51532). Nature of the test: SMARCA4 ATPase activity assay (ADP-Glo, chicken mononucleosome substrate).
[3] abbreviates: Table 3a.1, SMARCA2 5 nM, mononucleosome 10 nM.
Where [4] appears, read: FL-SMARCA4 IC50, Table 3a.2, SMARCA4 5 nM, ATP 250 uM, mononucleosome 10 nM.
[5] abbreviates: Table 3b.1, SMARCA2 5 nM, mononucleosome 10 nM.
Where [6] appears, read: FL-SMARCA4 IC50, Table 3b.2, SMARCA4 5 nM, ATP 250 uM, mononucleosome 10 nM.
The mark [7] stands for this setting: Table 3c.1, ATPase assay, enzyme 5 nM, chicken mononucleosome 10 nM, 30 min preincubation.
The mark [8] stands for this setting: FL-SMARCA4 IC>50, Table 3c.2, ATPase assay, enzyme 5 nM, ATP 250 uM, chicken mononucleosome 10 nM, 30 min preincubation.
Setting [9] is: Table 3d.1, ATPase assay, enzyme 5 nM, chicken mononucleosome 10 nM, 30 min preincubation, read-out: FL-SMARCA2 IC>50.
[10] abbreviates: Table 3.1, ATPase assay, enzyme 5 nM, chicken mononucleosome 10 nM, 30 min preincubation.
The mark [11] stands for this setting: FL-SMARCA4 IC50, Table 3.2, ATPase assay, enzyme 5 nM, ATP 250 uM, chicken mononucleosome 10 nM, 30 min preincubation.

SMILES strings stand for the structures. Like-named read-outs stand apart in the source and are kept apart here.

Sequence of FL-SMARCA4 (P51532 whole entry): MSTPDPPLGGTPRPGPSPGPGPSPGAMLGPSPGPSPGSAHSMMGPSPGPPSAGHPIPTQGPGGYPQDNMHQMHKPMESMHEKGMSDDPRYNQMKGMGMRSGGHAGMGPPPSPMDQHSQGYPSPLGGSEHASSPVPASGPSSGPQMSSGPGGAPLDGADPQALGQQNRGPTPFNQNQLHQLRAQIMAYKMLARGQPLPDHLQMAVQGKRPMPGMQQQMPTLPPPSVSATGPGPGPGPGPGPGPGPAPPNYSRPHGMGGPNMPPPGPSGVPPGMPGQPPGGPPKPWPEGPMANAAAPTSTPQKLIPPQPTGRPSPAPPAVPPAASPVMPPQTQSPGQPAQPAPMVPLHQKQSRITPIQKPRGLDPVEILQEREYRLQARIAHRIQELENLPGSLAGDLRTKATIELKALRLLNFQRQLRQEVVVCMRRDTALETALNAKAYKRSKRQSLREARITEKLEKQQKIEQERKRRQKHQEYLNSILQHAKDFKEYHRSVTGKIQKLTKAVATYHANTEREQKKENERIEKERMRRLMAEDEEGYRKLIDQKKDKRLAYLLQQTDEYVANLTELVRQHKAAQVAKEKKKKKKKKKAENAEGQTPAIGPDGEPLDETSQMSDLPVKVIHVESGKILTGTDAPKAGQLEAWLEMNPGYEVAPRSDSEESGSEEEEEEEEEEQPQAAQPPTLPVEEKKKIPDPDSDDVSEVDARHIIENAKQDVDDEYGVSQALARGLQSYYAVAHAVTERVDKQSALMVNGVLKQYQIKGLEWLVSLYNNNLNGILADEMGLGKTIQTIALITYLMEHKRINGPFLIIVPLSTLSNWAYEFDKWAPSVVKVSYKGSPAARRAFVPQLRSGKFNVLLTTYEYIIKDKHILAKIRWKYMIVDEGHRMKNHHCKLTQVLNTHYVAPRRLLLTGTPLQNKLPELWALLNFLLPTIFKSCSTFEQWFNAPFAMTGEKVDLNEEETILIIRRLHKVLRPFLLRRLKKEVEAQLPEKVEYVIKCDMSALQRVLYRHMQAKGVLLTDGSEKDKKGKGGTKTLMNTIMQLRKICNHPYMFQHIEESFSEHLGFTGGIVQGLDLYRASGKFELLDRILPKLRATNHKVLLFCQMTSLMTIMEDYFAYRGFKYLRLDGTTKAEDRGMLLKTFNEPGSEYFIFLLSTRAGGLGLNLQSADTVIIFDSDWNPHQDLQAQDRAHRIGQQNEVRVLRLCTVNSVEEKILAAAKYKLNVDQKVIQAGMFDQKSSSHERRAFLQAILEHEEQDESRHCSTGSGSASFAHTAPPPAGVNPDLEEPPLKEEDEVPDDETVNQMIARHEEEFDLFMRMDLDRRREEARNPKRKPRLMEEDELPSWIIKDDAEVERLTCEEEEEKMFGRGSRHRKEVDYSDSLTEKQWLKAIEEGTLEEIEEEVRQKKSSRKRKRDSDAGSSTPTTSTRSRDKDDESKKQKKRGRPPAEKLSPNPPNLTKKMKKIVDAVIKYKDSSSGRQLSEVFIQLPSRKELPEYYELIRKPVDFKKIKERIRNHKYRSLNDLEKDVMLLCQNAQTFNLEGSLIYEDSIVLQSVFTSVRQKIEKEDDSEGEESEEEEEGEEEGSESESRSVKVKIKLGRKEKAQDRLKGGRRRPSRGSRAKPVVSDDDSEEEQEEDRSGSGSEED
T1 sequence (P51531 with tags, fused parts or gaps): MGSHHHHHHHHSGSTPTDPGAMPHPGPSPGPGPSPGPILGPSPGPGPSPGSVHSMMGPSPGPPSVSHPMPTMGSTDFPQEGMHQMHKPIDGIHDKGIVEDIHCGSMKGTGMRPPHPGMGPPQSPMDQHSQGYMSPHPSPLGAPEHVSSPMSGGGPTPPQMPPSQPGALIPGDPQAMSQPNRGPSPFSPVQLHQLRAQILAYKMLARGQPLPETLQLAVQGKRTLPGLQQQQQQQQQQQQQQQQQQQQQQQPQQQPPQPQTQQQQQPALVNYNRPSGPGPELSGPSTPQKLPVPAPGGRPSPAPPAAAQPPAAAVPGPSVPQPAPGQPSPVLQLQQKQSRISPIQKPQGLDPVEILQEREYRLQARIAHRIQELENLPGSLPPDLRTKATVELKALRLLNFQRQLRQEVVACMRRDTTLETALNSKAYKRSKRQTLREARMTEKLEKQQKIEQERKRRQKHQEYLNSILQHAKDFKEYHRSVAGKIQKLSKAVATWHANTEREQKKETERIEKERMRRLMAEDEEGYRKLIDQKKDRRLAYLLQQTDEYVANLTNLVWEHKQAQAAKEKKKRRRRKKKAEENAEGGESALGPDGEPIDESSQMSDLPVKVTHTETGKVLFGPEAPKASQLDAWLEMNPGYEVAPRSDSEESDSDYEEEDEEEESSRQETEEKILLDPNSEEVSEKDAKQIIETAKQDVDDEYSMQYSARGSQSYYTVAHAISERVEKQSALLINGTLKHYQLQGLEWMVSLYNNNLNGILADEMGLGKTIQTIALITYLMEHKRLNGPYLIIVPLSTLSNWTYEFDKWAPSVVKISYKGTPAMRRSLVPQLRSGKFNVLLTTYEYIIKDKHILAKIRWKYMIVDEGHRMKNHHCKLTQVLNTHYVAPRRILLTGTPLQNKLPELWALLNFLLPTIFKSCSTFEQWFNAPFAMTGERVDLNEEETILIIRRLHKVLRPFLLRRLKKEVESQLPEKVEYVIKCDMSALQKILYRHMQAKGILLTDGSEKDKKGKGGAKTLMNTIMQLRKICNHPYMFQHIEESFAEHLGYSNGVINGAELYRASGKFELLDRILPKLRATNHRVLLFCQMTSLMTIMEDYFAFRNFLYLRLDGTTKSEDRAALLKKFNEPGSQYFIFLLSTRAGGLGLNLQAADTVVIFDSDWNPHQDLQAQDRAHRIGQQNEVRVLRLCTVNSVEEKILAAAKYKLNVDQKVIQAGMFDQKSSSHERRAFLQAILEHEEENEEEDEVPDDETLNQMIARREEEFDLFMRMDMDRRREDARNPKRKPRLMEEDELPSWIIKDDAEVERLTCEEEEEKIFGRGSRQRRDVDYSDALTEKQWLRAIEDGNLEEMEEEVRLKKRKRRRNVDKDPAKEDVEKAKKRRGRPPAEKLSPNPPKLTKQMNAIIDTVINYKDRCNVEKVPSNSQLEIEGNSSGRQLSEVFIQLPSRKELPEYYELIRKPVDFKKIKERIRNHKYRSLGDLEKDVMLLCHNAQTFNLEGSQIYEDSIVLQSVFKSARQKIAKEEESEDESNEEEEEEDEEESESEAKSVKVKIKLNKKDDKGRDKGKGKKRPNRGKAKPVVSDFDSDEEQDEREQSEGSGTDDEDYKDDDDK

For the compound `CCn1cc(NC(=O)c2ccc(=O)n(-c3ccccc3F)n2)ccc1=O` [Compound 1a], the IC50 in test [1] (setting [3]) and in test [2] (setting [4]) was > 50 µM in each case.
As to `CC(=O)c1cc(C(=O)Nc2c[nH]c(=O)c(C)c2)ccc1C` [Compound 1b], the IC50 in test [1] (setting [5]) and in test [2] (setting [6]) was > 50 µM throughout.
With `O=C(Nc1cc(F)c(=O)n(CC(F)F)c1)c1nnc(Cl)o1` [Compound 1c], the IC50 in test [1] (setting [7]) was 0.402 µM; in test [2] (setting [8]), > 50 µM.
As for `CCn1cc(NC(=O)C(=O)c2ccc(Cl)s2)ccc1=O` [Compound 1d], the IC50 in test [1] (setting [9]) and in test [2] (FL-SMARCA4 IC50) was > 50 µM throughout.
With `Cn1cc(NC(=O)c2coc(Br)c2)cc(Cl)c1=O` [Compound 2], the IC50 was 33.2 µM in test [1] (setting [10]) and > 50 µM in test [2] (setting [11]).
As for `CC(C)COc1ncccc1C(=O)Nc1cc(Cl)c(=O)n(C)c1` [Compound 2a], the IC50 in test [1] (setting [3]) and in test [2] (setting [4]) was > 50 µM each time.
For `Cc1c(Cl)cccc1C(=O)Nc1c[nH]c(=O)c(C)c1` [Compound 2b], the IC50 in test [1] (setting [5]) and in test [2] (setting [6]) was > 50 µM throughout.
In the case of `C[S+]([O-])c1cc(C(=O)Nc2cc(F)c(=O)n(CC(F)F)c2)sc1Cl` (stereo not shown) [Compound 2c], the IC50 in test [1] (setting [7]) was 24.6 µM; in test [2] (setting [8]), > 50 µM.
Regarding `Cc1cc(C)n(-c2ccc(C(=O)Nc3cn(C)c(=O)cc3C)cn2)n1` [Compound 2d], the IC50 in test [1] (setting [9]) and in test [2] (FL-SMARCA4 IC50) was > 50 µM each time.
Turning to `CCn1cc(NC(=O)c2nc(-c3ccc(OC)cc3)oc2C)ccc1=O` [Compound 3], the IC50 in test [1] (setting [10]) and in test [2] (setting [11]) was > 50 µM in each case.
`CCn1cc(NC(=O)[C@@H]2C[C@H](OC)CN2C)ccc1=O` [Compound 3a]: the IC50 in test [1] (setting [3]) and in test [2] (setting [4]) was > 50 µM throughout.
In the case of `CCn1cc(NC(=O)C2C(C)(C)C2(C)C)ccc1=O` [Compound 3b], the IC50 in test [1] (setting [5]) and in test [2] (setting [6]) was > 50 µM in each case.
In the case of `COCc1cc(NC(=O)c2cc(F)c(Cl)s2)cn(CC(F)F)c1=O` [Compound 3c], the IC50 in test [1] (setting [7]) is 40 µM; in test [2] (setting [8]) it was > 50 µM.
As to `Cn1cc(NC(=O)C(C)(C)Oc2ccc(C#N)cc2)cc(Cl)c1=O` [Compound 3d], the IC50 in test [1] (setting [9]) and in test [2] (FL-SMARCA4 IC50) was > 50 µM throughout.
As for `Cc1cc(NC(=O)c2cnn(-c3cccc(Cl)c3)c2C)c[nH]c1=O` [Compound 4], the IC50 in test [1] (setting [10]) and in test [2] (setting [11]) was > 50 µM each time.
With `COC1(C(=O)Nc2ccc(=O)n(Cc3ccccc3Cl)c2)CCNCC1` [Compound 4a], the IC50 in test [1] (setting [3]) and in test [2] (setting [4]) was > 50 µM each time.
Regarding `CCn1cc(NC(=O)c2ccc(Cl)c(Cl)c2)ccc1=O` [Compound 4b], the IC50 in test [1] (setting [5]) was 42 µM; in test [2] (setting [6]) it was > 50 µM.
Regarding `O=C(Nc1cc(C#CCO)c(=O)n(CC(F)F)c1)c1cc(F)c(Cl)s1` [Compound 4c], the IC50 in test [1] (setting [7]) was 6.98 µM; in test [2] (setting [8]) it was 18.1 µM.
As to `Cc1cc(=O)n(C)cc1NC(=O)C1CCCN(Cc2ccccc2)C1` (stereo not shown) [Compound 4d], the results for the IC50 in test [1] (setting [9]) and in test [2] (FL-SMARCA4 IC50) were 32 µM and > 50 µM, respectively.
Regarding `CCn1cc(NC(=O)c2cnc(-c3ccc4c(c3)CCO4)s2)ccc1=O` [Compound 5], the IC50 in test [1] (setting [10]) and in test [2] (setting [11]) was > 50 µM each time.
For `CCn1cc(NC(=O)[C@H]2CCC(=O)N(C)[C@@H]2c2ccncc2)ccc1=O` [Compound 5a], the IC50 in test [1] (setting [3]) and in test [2] (setting [4]) was > 50 µM in each case.
With `CCn1cc(NC(=O)c2cc(Cl)cc(Cl)c2)ccc1=O` [Compound 5b], the IC50 in test [1] (setting [5]) and in test [2] (setting [6]) was > 50 µM throughout.
For `COc1cccc(-c2nc(C(=O)Nc3cn(C)c(=O)cc3C)cs2)c1OC` [Compound 5d], the IC50 in test [1] (setting [9]) and in test [2] (FL-SMARCA4 IC50) was > 50 µM in each case.
With `CCn1cc(NC(=O)c2csc(-c3ccc(C)n3C)n2)ccc1=O` [Compound 6], the IC50 in test [1] (setting [10]) and in test [2] (setting [11]) was > 50 µM in each case.
For the compound `O=C(Nc1ccc(=O)n(Cc2ccccc2Cl)c1)C1COCCN1` (stereo not shown) [Compound 6a], the IC50 in test [1] (setting [3]) and in test [2] (setting [4]) was > 50 µM each time.
Take `CCn1cc(NC(=O)c2cccc(Cl)c2)ccc1=O` [Compound 6b]: the IC50 in test [1] (setting [5]) and in test [2] (setting [6]) was > 50 µM throughout.
For the compound `O=C(Nc1cc(F)c(=O)n(CC(F)F)c1)c1cc(C#Cc2cn3ccccc3n2)c(Cl)s1` [Compound 6c], the values for the IC50 in test [1] (setting [7]) and in test [2] (setting [8]) were 0.901 µM and 0.679 µM, respectively.
`O=C(CNCC1CC1)Nc1ccc(=O)n(Cc2ccccc2Cl)c1` [Compound 6d]: the IC50 in test [1] (setting [9]) is 22.4 µM; in test [2] (FL-SMARCA4 IC50), > 50 µM.
Take `Cc1nc(-c2cc(C(=O)Nc3ccc(=O)n(C)c3)n(C)c2)cs1` [Compound 7]: the IC50 in test [1] (setting [10]) and in test [2] (setting [11]) was > 50 µM throughout.
Regarding `C[C@H]1OCC(=O)N(Cc2ccccc2)[C@@H]1C(=O)Nc1ccc(=O)n(C)c1` [Compound 7a], the IC50 in test [1] (setting [3]) and in test [2] (setting [4]) was > 50 µM in each case.
Turning to `CCn1cc(NC(=O)c2ccc(Cl)cc2)ccc1=O` [Compound 7b], the IC50 in test [1] (setting [5]) and in test [2] (setting [6]) was > 50 µM each time.
As for `CN(C)CCCc1cc(NC(=O)c2cc(F)c(Cl)s2)cn(CC(F)F)c1=O` [Compound 7c], the IC50 in test [1] (setting [7]) and in test [2] (setting [8]) was > 50 µM each time.
On to `Cc1cc(=O)n(C)cc1NC(=O)[C@@H]1CCCO[C@H]1c1cn[nH]c1` [Compound 7d], for which the IC50 in test [1] (setting [9]) and in test [2] (FL-SMARCA4 IC50) was > 50 µM each time.
For `Cn1cc(NC(=O)c2cc(Cl)cs2)cc(Br)c1=O` [Compound 8], the IC50 in test [1] (setting [10]) and in test [2] (setting [11]) was > 50 µM each time.
In the case of `COc1ccc2[nH]c(C(=O)Nc3c[nH]c(=O)c(C)c3)cc2c1` [Compound 8a], the IC50 in test [1] (setting [3]) and in test [2] (setting [4]) was > 50 µM in each case.
With `CCn1cc(NC(=O)c2ccc(F)c(Cl)c2)ccc1=O` [Compound 8b], the IC50 in test [1] (setting [5]) and in test [2] (setting [6]) was > 50 µM each time.
Consider `C[S+]([O-])c1cc(NC(=O)c2cc(F)c(Cl)s2)cn(CC(F)F)c1=O` (stereo not shown) [Compound 8c], for which the IC50 in test [1] (setting [7]) and in test [2] (setting [8]) was > 50 µM throughout.
As to `Cc1cc(=O)n(C)cc1NC(=O)[C@@H]1CNC[C@H]1C(F)(F)F` [Compound 8d], the IC50 in test [1] (setting [9]) and in test [2] (FL-SMARCA4 IC50) was > 50 µM throughout.
Consider `CCn1cc(NC(=O)c2cnc3ccccn23)ccc1=O` [Compound 19a], for which the IC50 in test [1] (setting [3]) is > 50 µM.
On to `CCn1cc(NC(=O)c2cc(C)oc2C)ccc1=O` [Compound 23], for which the IC50 in test [2] (setting [11]) is > 50 µM.
On the same count and under the same terms, the result for `CCn1cc(NC(=O)c2cc(C3CC3)on2)ccc1=O` [Compound 24] reads > 50 µM; that for `CCn1cc(NC(=O)c2csc(C(F)(F)F)n2)ccc1=O` [Compound 25], > 50 µM; that for `CCn1cc(NC(=O)c2cc(C)n[nH]2)ccc1=O` [Compound 27], > 50 µM.
Same read-out and setting: the result for `CCn1cc(NC(=O)c2cn(C)nc2C(F)F)ccc1=O` [Compound 28] reads > 50 µM.
With `CCn1cc(NC(=O)c2csnn2)ccc1=O` [Compound 29], the IC50 in test [2] (setting [11]) was > 50 µM.
As to `CCn1cc(NC(=O)c2nc(Br)cs2)ccc1=O` [Compound 30], the IC50 in test [2] (setting [11]) is > 50 µM.
Take `CCn1cc(NC(=O)c2cn(C)nc2C(F)(F)F)ccc1=O` [Compound 31]: in test [2] (setting [11]), the IC50 was > 50 µM.
Compound `CCn1cc(NC(=O)c2snc(Cl)c2Cl)ccc1=O` [Compound 34] registered an IC50 in test [1] (setting [10]) of 28.5 µM.
Same read-out and setting: the result for `Cn1c(C(=O)Nc2ccc(=O)n(C3CC3)c2)cc(Cl)c1Cl` [Compound 41] reads > 50 µM; that for `CCn1c(C(=O)Nc2ccc(=O)n(CC)c2)cc(Cl)c1Cl` [Compound 42], 12.6 µM; that for `CCn1cc(NC(=O)c2cc(Br)cs2)ccc1=O` [Compound 45], 43.1 µM.
Same read-out and setting: the result for `CCn1cc(NC(=O)c2ccc(I)s2)ccc1=O` [Compound 46] reads 11.1 µM.
The same measure, in the same setting: under `CCn1cc(NC(=O)c2ncc(Br)s2)ccc1=O` [Compound 49] stands > 50 µM.
Consider `O=C(Nc1ccc(=O)n(-c2ccccc2)c1)c1ccc(Br)s1` [Compound 50], for which the IC50 in test [1] (setting [10]) was > 50 µM.
The compound `N[C@H]1CC[C@H](C#Cc2cc(C(=O)Nc3cc(F)c(=O)n(CC(F)F)c3)sc2Cl)CC1` [Compound 66d] came in with an IC50 in test [2] (FL-SMARCA4 IC50) of 1.29 µM.
As to `CCn1cc(NC(=O)c2cnc(Cl)[nH]2)ccc1=O` [Compound 99], the IC50 in test [1] (setting [10]) is > 50 µM.
The same measure, in the same setting: under `CCn1cc(NC(=O)c2cc(Cl)n(C)n2)ccc1=O` [Compound 100] stands > 50 µM.
`O=C(O)c1cccc(C#Cc2cc(C(=O)Nc3cc(F)c(=O)n(CC(F)F)c3)ccn2)c1` [Compound 132c] showed an IC50 in test [2] (setting [8]) of 11.3 µM.
As to `N#Cc1cc(C(=O)Nc2cc(C#N)c(=O)n(CCF)c2)sc1Cl` [Compound 321], in test [2] (setting [11]), the IC50 was found to be 0.635 µM.

Source of the values: patent publication US20220356174A1, “PYRIDIN-2-ONE COMPOUNDS USEFUL AS SMARCA2 ANTAGONISTS” (Epizyme, Inc., priority 2018, published 2022).
